Assays:
[1] = system: LNCaP human prostate cancer cells; assay: MTT cell proliferation, LNCaP; assay type: cell-based; conditions: 48 h
Procedure: (§1) Cell proliferation was measured using dimethylthiazoldiphenyltetrazolium (MTT) reduction (Mosman et al. J. Immunol. Methods 65:55, 1983). Unless otherwise stated, 100 Al of 5 mg of MTT (Sigma-Aldrich, St. Louis, Mo., USA) dissolved in 1 ml of PBS was added into each well. After 4 h, medium was removed from each well, 1.0 ml of acid-isopropanol (0.04 N HCI in isopropanol) was added and reduced MTT was solubilized by mixing. Absorbency of the reaction product was measured at a wavelength of 570 nm using a multiplate spectrophotometer reader (Elx800 Model, Bio-TEK Instruments Inc., Winooski, Vt., USA).
(§2) Unless stated otherwise 1.0 x 10^5 cells/ml were seeded in 6-well flat-bottom tissue culture plates and were maintained for 48 h at 370 C in a 5% CO2 atmosphere.
(§3) PC-3, LNCAP and Du-145 human prostate cancer cells; MCF-7 human breast cancer cells; HT-1080 human fibrosarcoma cancer cells; B16F1 murine melanoma cells; and, UMUC-3, RT-4, HT-1376 and T-24 human bladder cancer cells were incubated with 0.8, 8.0 and 80 μg/ml of 5.0-7.5 x 10^5 Da HA (Table 2).
(§4) PC-3. LNCaP and Du-145 human prostate cancer cells were incubated with 8.0 jg/ml of 5.0-7.5 x 105 Da HA or of <1.5 x 10^4 Da HA (Table 3).
(§5) CD44 expression and the inhibition of proliferation by 5.0-7.5 x 10^5 Da HA were measured using Jurkat T cell leukemia cells; MCF-7 human breast cancer cells; RT-4, T-24, HT-1376 and UMUC-3 human bladder cancer cells; and, PC-3, Du-145 and LNCaP prostate cancer cells (Table 8)

[2] = system: B16F1 murine melanoma cells; assay: MTT cell proliferation, B16F1; assay type: cell-based; conditions: 48 h
Procedure: as §1, §2, §3

[3] = system: Du-145 human prostate cancer cells; assay: MTT cell proliferation, Du-145; assay type: cell-based
Procedure: as §1, §2, §3, §4
(§6) Unless stated otherwise 2.0 x 10^4 cells/ml were seeded in 24-well plates and were maintained for 48 h at 370 C in a 5% CO2 atmosphere. MTT was used at 50 μl per well.
(§7) T-24 human bladder cancer cells, PC-3 and Du-145 human prostate cancer cells, and MCF-7 human breast cancer cell were incubated with saline or with 80.0 jg/ml of 5.0-7.5 x 105 Da HA +1.0 μg/ml of M-DNA (Table 4).
as §5

[4] = system: HT-1376 human bladder cancer cells; assay: MTT cell proliferation, HT-1376; assay type: cell-based
Procedure: as §1, §2, §3, §6
HT-1376, RT-4 and T-24 human bladder cancer cells were incubated with 0.8 pg/ml of 5.0-7.5 x 10^5 Da HA +1.0 ug/ml of MCC (Table 5).
as §5

[5] = system: HT-1080 human fibrosarcoma cancer cells; assay: MTT cell proliferation, HT-1080; assay type: cell-based; conditions: 48 h
Procedure: as §1, §2, §3

[6] = system: MCF-7 human breast cancer cells; assay: MTT cell proliferation, MCF-7; assay type: cell-based; conditions: MCF-7 (2.5 X 10^5 cells/ml)
[7] = system: PC-3 human prostate cancer cells; assay: MTT cell proliferation, PC-3; assay type: cell-based
Procedure: as §1, §2, §3, §4, §6, §7, §5

[8] = system: RT-4 human bladder cancer cells; assay: MTT cell proliferation, RT-4; assay type: cell-based
Procedure: Cell proliferation was measured using dimethylthiazoldiphenyltetrazolium (MTT) reduction (Mosman et al. J. Immunol. Methods 65:55, 1983). Unless otherwise stated, 100 Al of 5 mg of MTT (Sigma-Aldrich, St. Louis, Mo., USA) dissolved in 1 ml of PBS was added into each well. After 4 h, medium was removed from each well, 1.0 ml of acid-isopropanol (0.04 N HCI in isopropanol) was added and reduced MTT was solubilized by mixing. Absorbency of the reaction product was measured at a wavelength of 570 nm using a multiplate spectrophotometer reader (Elx800 Model, Bio-TEK Instruments Inc., Winooski, Vt., USA). […] PC-3, LNCAP and Du-145 human prostate cancer cells; MCF-7 human breast cancer cells; HT-1080 human fibrosarcoma cancer cells; B16F1 murine melanoma cells; and, UMUC-3, RT-4, HT-1376 and T-24 human bladder cancer cells were incubated with 0.8, 8.0 and 80 μg/ml of 5.0-7.5 x 10^5 Da HA (Table 2). […] MTT was used at 50 μl per well. HT-1376, RT-4 and T-24 human bladder cancer cells were incubated with 0.8 pg/ml of 5.0-7.5 x 10^5 Da HA +1.0 ug/ml of MCC (Table 5). […] MCF-7 human breast cancer cells; RT-4, T-24, HT-1376 and UMUC-3 human bladder cancer cells; and, PC-3, Du-145 and LNCaP prostate cancer cells (Table 8)

[9] = system: IL-6 production by peripheral blood mononuclear cells; assay: IL-6 production by PBMCs (ELISA); assay type: cell-based, humans
Procedure: Peripheral blood mononuclear cells (hereinafter, “PBMCs”) were isolated from the blood of 5 healthy humans by Ficoll-Hypaque (Amersham Pharmacia Biotech, Baie d'Urfee, Quebec, Canada) density gradient centrifugation of whole blood. Stimulation of IL-6 and IL-12 production by the immune system cells was determined using the appropriate commercial ELISA (BioSource, Camarillo, CA, USA). Results are expressed as the “fold” (x) increases in cytokine production by treated cells compared to control cells.
PBMCs were incubated with 1 mg/ml of 5.0-7.5 x 105 Da and production of IL-6 and IL-12 was determined (Table 9).
PBMCs, isolated from the blood of individual #1, were incubated with 0.008, 0.04, 0.2 and 1 mg/ml of 5.0-7.5 x 10^5 Da (Table 10)

[10] = system: UMUC-3 human bladder cancer cells; assay: MTT cell proliferation, UMUC-3; assay type: cell-based; conditions: 48 h
Procedure: as §1, §2, §3, §5

[11] = HA 8.0 μg/ml, 48 h, listed as 0.5-7.5 × 10^5 Da HA
[12] = HA 80.0 μg/ml alone (+ saline), 24-well, Example 6
[13] = HA at 0.8 μg/ml alone (+ saline), 24-well, Example 6

## Hyaluronic acid [5.0-7.5 × 10^5 Da HA]
[1]; HA 0.8 μg/ml
  % INHIBITION of cell proliferation: 7%
[1]; HA 8.0 μg/ml, listed as 0.5-7.5 × 10^5 Da HA
  % INHIBITION of cell proliferation: 13%
[2]; HA 0.8 μg/ml
  % INHIBITION of cell proliferation: 20%
[2]; HA 8.0 μg/ml
  % INHIBITION of cell proliferation: 20%
[2]; HA 80.0 μg/ml
  % INHIBITION of cell proliferation: 30%
[3]; HA 0.8 μg/ml, 48 h
  % INHIBITION of cell proliferation: 6%
[3]; [11]
  % INHIBITION of cell proliferation: 15%
[3]; [12]
  % INHIBITION of cell proliferation: 38%
[3]; HA 80.0 μg/ml, 48 h
  % INHIBITION of cell proliferation: 38%
[4]; HA 0.8 μg/ml, 48 h
  % INHIBITION of cell proliferation: 0%
[4]; HA 8.0 μg/ml, 48 h
  % INHIBITION of cell proliferation: 3%
[4]; HA 80.0 μg/ml, 48 h
  % INHIBITION of cell proliferation: 1%
[4]; [13]
  % INHIBITION of cell proliferation: 3%
[5]; HA 0.8 μg/ml
  % INHIBITION of cell proliferation: 4%
[5]; HA 8.0 μg/ml
  % INHIBITION of cell proliferation: 4%
[5]; HA 80.0 μg/ml
  % INHIBITION of cell proliferation: 36%
[6]; HA 0.01 μg/ml alone
  % INHIBITION of cell proliferation: 6%
[6]; HA 0.1 μg/ml alone
  % INHIBITION of cell proliferation: 5%
[7]; HA 0.8 μg/ml, 48 h
  % INHIBITION of cell proliferation: 15%
[7]; [11]
  % INHIBITION of cell proliferation: 26%
[7]; [12]
  % INHIBITION of cell proliferation: 30%
[8]; HA 0.008 μg/ml alone (+ saline)
  % INHIBITION of cell proliferation: 0%
[8]; HA 0.08 μg/ml alone (+ saline)
  % INHIBITION of cell proliferation: 0%
[8]; HA 0.8 μg/ml, 48 h
  % INHIBITION of cell proliferation: 12%
[8]; HA 8.0 μg/ml, 48 h
  % INHIBITION of cell proliferation: 13%
[8]; HA 80.0 μg/ml, 48 h
  % INHIBITION of cell proliferation: 5%
[8]; [13]
  % INHIBITION of cell proliferation: 13%
[9]; PBMCs of individual 1, HA 1 mg/ml
  IL-6 production, fold increase vs control cells: 3.8x
[9]; PBMCs of individual 2, HA 1 mg/ml
  IL-6 production, fold increase vs control cells: 1.8x
[9]; PBMCs of individual 3, HA 1 mg/ml
  IL-6 production, fold increase vs control cells: 4.1x
[9]; PBMCs of individual 4, HA 1 mg/ml
  IL-6 production, fold increase vs control cells: 1.4x
[9]; PBMCs of individual 5, HA 1 mg/ml
  IL-6 production, fold increase vs control cells: 6.3x
[9]; PBMCs of individual #1, HA 0.008 mg/ml
  IL-6 production, fold increase vs control cells: 2.4x
[9]; PBMCs of individual #1, HA 0.040 mg/ml
  IL-6 production, fold increase vs control cells: 3.5x
[9]; PBMCs of individual #1, HA 0.200 mg/ml
  IL-6 production, fold increase vs control cells: 2.9x
[10]; HA 0.8 μg/ml
  % INHIBITION of cell proliferation: 10%
[10]; HA 8.0 μg/ml
  % INHIBITION of cell proliferation: 10%
[10]; HA 80.0 μg/ml
  % INHIBITION of cell proliferation: 2%
